From paper PMC10707934, “Design and Synthesis of Novel α-Methylchalcone Derivatives, Anti-Cervical Cancer Activity, and Reversal of Drug Resistance in HeLa/DDP Cells” (Molecules, 2023)

Tests used:
Assay type in all cases: cell-based, human
[1] = system: HeLa/DDP cells; assay: Cell cycle experiment (PI flow cytometry), HeLa/DDP; conditions: 24 h; for blocking rate at the G2/M phase: control 4.05%
Protocol: (§1) A 2 mL volume of cell fluid per well at a concentration of 1 × 10^6 cells / mL was inoculated into a 6-well plate and cultured for 24 h. After removing the old solution, 2 mL of the cell culture medium containing 3k was added to each well, and each well was exposed for 24 h to a concentration gradient of 2.5, 5, and 10 μM. The experiment was repeated three times for each concentration. Complete culture medium containing only cells was used as the blank control group, and 20 μM cisplatin and chalcone injection were used as the positive control group. After 24 h of treatment, the cells were collected in a 15 mL centrifuge tube and fixed with 75% ethanol at 4 °C for 24 h. A 400 µL volume of PI/RNase staining buffer (BD Biosciences Pharmingen, 550825, 10975 Torreyana Road, San Diego, CA, USA) was uniformly dispersed and subjected to staining for 15 min at room temperature […]. The sample was subsequently filtered and analyzed using up-flow cytometry (BD, LSRFortessa, New York, NY, USA).
The experimental methods for the effect of compound 3k, cisplatin, and chalcone on the HeLa/DDP cell cycle were the same as in Section 3.3.5.

[2] = system: HeLa/DDP cells; assay: MTT anti-cisplatin-resistant cervical cancer activity, HeLa/DDP; conditions: for resistance index (RI): HeLa/DDP versus parental HeLa; for resistance index (RI) / IC50: 48 h; for IC50: HeLa/DDP, MTT, mean ± SD
Protocol: All cell types, at a volume of 200 µL per well, were inoculated in 96-well plates at a density of 2.5 × 10^4 cells / mL and cultured for 24 h in an incubator with 5% CO2 at 37 °C. The old culture medium was replaced with 200 µL of fresh medium per well containing positive compounds, at concentrations of 1, 6.25, 12.5, 25, 50, and 100 μM. After 48 h of culture, 20 µL per well of 5 mg·mL^−1 MTT solution was added. After 4 h of culture, the old solution was discarded, and 150 µL per well of DMSO solution was added. Using an enzyme labeler (Thermo Fisher Scientific, Multiskan GO, Waltham, MA, USA), the plates were shaken for 10 min, OD values were determined at 490 nm, and the inhibition rate was calculated. Non-linear regression fitting of the cell growth rate was carried out using SPSS 23.0, and the IC50 of the compound was calculated. The inhibition rate was calculated using the formula: [(ODempty − ODtest)/(ODempty − ODnegative group)] × 100%, (ODempty blank group absorbance, ODtest absorbance of administration group, ODnegative group without cell culture medium). Each group contained six compound holes, and the experimental results averaged three trials. Complete medium containing only cells was used as the blank control; a complete medium without cells as was used as the negative control; and cisplatin, paclitaxel, and adriamycin were used as the positive controls. The concentration gradient was the same as that used for compounds 3a–3p.
To mitigate the detrimental consequences arising from the fixation of resistance reversal agents, concentrations that yielded a tumor cell proliferation rate reduction of less than 10% were selected. Consequently, the inhibitory efficacy of compound 3k against HeLa/DDP cells was assessed in conjunction with cisplatin at concentrations of 0.25, 0.5, and 1 μM. The experimental procedure employed was akin to that elucidated in Section 3.3.2. The impact of verapamil (6 μM) and 3k (0.25, 0.5, and 1 μM) on P-gp expression was ascertained via Western blot experiments, employing the same methodology delineated in Section 3.3.4.

[3] = system: HeLa/DDP cells; assay: Transwell migration assay, HeLa/DDP; conditions: 24 h, control 497
Protocol: HeLa (5 × 10^4 cells) was suspended in 200 μL of FBS-free medium. The top chamber contained the vehicle and various concentrations of compound 3k (2.5, 5, and 10 μM), cisplatin (20 μM) and chalcone (20 μM). The lower chamber was filled with 600 μL of medium containing 10% FBS. After incubating at 37 °C for 24 h, the cells on the top side of the Transwell membrane were removed with a cotton tip. Cells were fixed and stained with 4% paraformaldehyde (LEAGENE BIOTECHNOLOGY, Cat:DF0135, Lot:0823A23, Zhongguancun, Haidian District, Beijing, China) and 0.1% crystal violet solutions (Leagene Biotechnology, Cat:DZ0055, Lot:0508A23, Zhongguancun, Haidian District, Beijing, China) for 30 min to fix cells trapped on the perforated side of the membrane.
The experimental methods for the effects of compound 3k, cisplatin, and chalcone on HeLa/DDP cell invasion and migration were the same as in Section 3.3.6.

[4] = system: HeLa cells; assay: Cell cycle experiment (PI flow cytometry), HeLa; conditions: 24 h
Protocol: as §1

COc1ccc(/C=C(\C)C(=O)c2ccc(Cl)c(Cl)c2)cc1OC [Compound 3k, (E)-1-(3,4-Dichlorophenyl)-3-(3,4-dimethoxyphenyl)-2-methylprop-2-en-1-one]
blocking rate at the G2/M phase ([1]; 2.5 μM): 14.71% | blocking rate at the G2/M phase ([1]; 5 μM): 22.85% | blocking rate at the G2/M phase ([1]; 10 μM): 52.72% | resistance index (RI) [2]: 1.07 | inhibition rate against HeLa/DDP cell lines ([2]; HeLa/DDP, 0.25, 0.5, or 1 μM): less than 10% | IC50 ([2]; Homo sapiens): 9.72 ± 0.73 µM | number of migrated cells ([3]; 2.5 μM): 251 | number of migrated cells ([3]; 5 μM): 179 | number of migrated cells ([3]; 10 μM): 113 | blocking rate at the G2/M phase ([4]; 2.5 μM): 14.04% | blocking rate at the G2/M phase ([4]; 5 μM): 22.84% | blocking rate at the G2/M phase ([4]; 10 μM): 40.18%

N.N.[Cl][Pt][Cl] [Cisplatin, cisplatin, reference compound]
percentage of cells in G0/G1 phase ([1]; 20 μM, control 57.03%): 65.07% | resistance index (RI) [2]: 7.90 | IC50 [2]: 103 ± 3.6 µM | number of migrated cells ([3]; 20 μM): 395 | percentage of cells in the G0/G1 phase ([4]; 20 μM, control 52.1%): 73.93%
